Measurements: US6458872B1, “Benzotriazole UV absorbers having enhanced durability” (Ciba Specialty Chemicals Corporation, priority 1997, dated 2002)
“Also recorded” adds a separate entry of the source.

Key:
Format in all cases: physicochemical
[1] = Loss of UV absorber from high solids thermoset acrylic melamine clear coat, Xenon-Arc X180 cycle (Example 78); settings: for durability (low loss rate absorbance values after exposure): in words, summary of the tables of Example 78
From the text: Following the general procedure of Example 77, a number of additional benzotriazole test compounds are incorporated into a high solids thermoset acrylic melamine resin at such concentrations between 1.93 and 3% by weight to give equal molar concentrations of test benzotriazole in equal film thickness, and sufficient to give a starting absorbance of approximately 2.0 absorbance units.
The test discs are exposed in a Xenon-Arc Weather-Ometer at X180 cycle (0.45 Watts/M^2). The initial UV absorbance is measured followed by measurements at roughly 250 hour intervals for the first 2000 hours and every 500 hours thereafter. Each clear coat also contains 1% by weight of a hindered amine light stabilizer, bis-(1-octyloxy-2,2,6,6-tetramethylpiperidin-4-yl) sebacate, as well.

[2] = Loss of UV absorber from high solids thermoset acrylic clear coat, Xenon Arc Weather-Ometer (Example 77); settings: after 1211 hours Xenon arc exposure; clear coat with 1% hindered amine; UV absorber at 5 mmol % by weight
Protocol: To ascertain the effect on thermal durability and loss rate from a high solids thermoset acrylic coating of various 2H-benzotriazole UV absorbers substituted by a variety of electron withdrawing and electron donating groups, the following tests are carried out.
A high solids thermoset acrylic clear coat is prepared by mixing an experimental acrylic polyol resin and hexamethoxymethylmelamine (Resimene® 747, Monsanto) at a solids ratio of 60/40. The dodecylbenzene sulfonic acid catalyst (Nacure® 5225; King Industries) is added at 0.70% by weight. A flow aid Modaflow® (Monsanto) is added at 0.25% by weight to form a model acrylic melamine resin system.
The model clear coat is reduced with xylene to a viscosity of 26-27 second using a Zahn #2 cup and applied via a conventional air spray at 50 psi (3.5 Kg/cm^2) over a 1″×3″ (2.54 cm×7.62 cm) quartz slide. Cure is achieved by baking the slide for 30 minutes at 260° F. (127° C.). The clear coat is stabilized with 1% by weight of a hindered amine light stabilizer, bis-(1-octyloxy-2,2,6,6-tetramethylpiperidin-4-yl)sebacate, (TINUVIN® 123, Ciba-Geigy). The various test benzotriazole UV absorbers are incorporated at the 5 mmol % by weight in the clear coat. The film thickness on the quartz slides range from 1.15 to 1.41 mils (0.029 to 0.036 mm).
The films on the quartz slides are weathered according to the following conditions in Xenon Arc Weather-Ometer with a controlled irradiance at 6500 W, using inner quartz and outer borosilicate S-type filter. The irradiation cycle is as follows: 40 minutes of straight irradiation with no water spray, followed by 20 minutes of light plus front spray, followed by 60 minutes of light irradiation and finally by 60 minutes dart plus rear spray (condensation). The setting is at 0.55 W/M^2 at 340 nm, 1.98 kJ/hour. In the light cycle the black panel temperature is controlled at 70±2° C. The relative humidity in the light cycle is in the range of 50-55% and in the dark cycle 100%. The absorbance of the long wavelength UV band as a function of Xenon arc weathering hours are recorded in the table below.
To follow the loss of UV absorbers from the clear coats, UV spectra are measured initially and after weathering at regular time intervals. The UV spectrophotometer measures absorbance linearly up to 5.5 absorbance units using a reference beam attenuation technique.
This is tested by following the ratio of absorbance of the band at about 300 nm and the band at about 340 nm.
The data in the table below are based on formula A after 1211 hours of exposure of the clear coats containing the test benzotriazole UV absorbers.

[3] = Durability in solvent cast polycarbonate film, Atlas C165 Xenon-arc, ASTM G26 (Example 80); settings: for % Loss / Absorbance (max) Loss units: 1100 hrs
Protocol: (§1) The durability of representative benzotriazoles in thermoplastic substrates is determined by incorporating various test compounds into solvent cast films of poly(vinyl chloride), polycarbonate and polystyrene resins. The free standing films are mounted into cardboard holders, secured in metal frames and exposed in an Atlas C165 Xenon-arc Weather-Ometer under dry conditions according to ASTM G26 for 1100 and 2200 hour exposure. Loss of UV absorber is determined by monitoring the loss of diagnostic UV absorption as described earlier. Performance is measured by a change in color or the physical integrity of the film.
Polycarbonate flake (LEXAN® 145, General Electric) is dissolved in methylene chloride at room temperature along with between 1 and 3% by weight of test benzotriazole, based on the polycarbonate. Films are cast using a calibrated drawdown bar to prepare 1 mil thick film after drying.

[4] = Durability in solvent cast PVC films, Atlas C165 Weather-Ometer (Example 83); settings: PVC film; for % Loss / Absorbance (max) Loss units: 1100 hrs
Protocol: as §1
PVC films of GEON® 27 (Geon Co.) are solvent cast as described above with warm tetrahydrofuran (THF) and exposed in an Atlas C165 Weather-Ometer as described in Example 60 for 1100 hours.

[5] = UV absorption data (Example 74); settings: 20 mg/l concentrations; not the molar extinction values
Protocol: In the following examples the absorbance at 375 nm is reported for 20 mg/l concentrations. This is not the molar extinction values.

[6] = Yellowness color of solutions in butyl acetate, Macbeth Color-Eye (Example 75); settings: 30 mg/100 mL in butyl acetate; for DE: corresponding Yellowness Index value; for b: yellowness, Macbeth Color-Eye
Protocol: The following examples show the difference in color between some of the instant compounds as measured by a Macbeth Color-Eye instrument at a concentration of 30 mg/100 mL in butyl acetate. […] In the table, the compounds are listed by increasing b value. The instrument measures yellowness as b and DE is the corresponding Yellowness Index value.

[7] = UV absorption data (Example 74); parameters: ε @ λ max: unit not given beside the values
[8] = after 1253 hours of exposure, starting absorbance approximately 2.0, 1% hindered amine

## CC(C)(C)CC(C)(C)c1cc(-c2ccccc2)c(O)c(-n2nc3ccccc3n2)c1 [X]
[1]; after 1264 hours of exposure
  Units Absorbance Loss: 0.1796
[1]; after 1518 hours of exposure
  Units Absorbance Loss: 0.2220

## COC(=O)CCc1ccc(O)c(-n2nc3ccccc3n2)c1 [D]
[2]
  Units Absorbance Loss: 1.4002

## COC(=O)CCc1cc(-n2nc3ccccc3n2)c(O)c(C(C)(C)C)c1 [F]
[2]
  Units Absorbance Loss: 0.5259

## CC(C)(C)c1cc(CCCO)cc(-n2nc3ccccc3n2)c1O [Compound L]
[2]
  Units Absorbance Loss: 0.3712

## CC(C)(c1ccccc1)c1cc(-n2nc3ccccc3n2)c(O)c(C(C)(C)c2ccccc2)c1 [Compound P, 2-(2-hydroxy-3,5-di-α-cumylphenyl)-2H-benzotriazole]
[2]
  Units Absorbance Loss: 0.2576
[3]; 1.5 wt %
  Absorbance (max) 1100 hrs: 0.919
  % Loss: 13.5%
  Absorbance (max) Loss units: 0.143
[3]; 1.5 wt %, P at 347 nm
  Absorbance (max) 0 hrs: 1.062
[3]; 2.5 wt %
  Absorbance (max) 1100 hrs: 1.844
  % Loss: 12.3%
  Absorbance (max) Loss units: 0.260
[3]; 2.5 wt %, AA at 364 nm
  Absorbance (max) 0 hrs: 2.104
[4]; 1.5 wt %
  Absorbance (max) 1100 hrs: 1.022
  % Loss: 10.7%
  Absorbance (max) Loss units: 0.123
[4]; 1.5 wt %, P at 347 nm
  Absorbance (max) 0 hrs: 1.145
[4]; 2.5 wt %
  Absorbance (max) 1100 hrs: 2.081
  % Loss: 5.6%
  Absorbance (max) Loss units: 0.130
[4]; 2.5 wt %, AA at 368 nm
  Absorbance (max) 0 hrs: 2.211

## CC(C)(C)CC(C)(C)c1cc(-n2nc3ccc(Cl)cc3n2)c(O)c(C(C)(C)c2ccccc2)c1 [V, 5-Chloro-2-(2-hydroxy-3-α-cumyl-5-tert-octylphenyl)-2H-benzotriazole]
[1]; after 1264 hours of exposure
  Units Absorbance Loss: 0.1719
[1]; after 1518 hours of exposure
  Units Absorbance Loss: 0.1955
[1]
  durability (low loss rate absorbance values after exposure): especially durable

## COC(=O)c1ccc2nn(-c3cc(C(C)(C)CC(C)(C)C)cc(C(C)(C)c4ccccc4)c3O)nc2c1 [DD, 5-carbomethoxy-2-(2-hydroxy-3-α-cumyl-5-tert-octylphenyl)-2H-benzotriazole]
[5]
  Absorbance @ 375 nm: 0.42
[6]
  DE: 2.25
  b: 1.85
[7]
  ε @ λ max: 15,700
  λ max nm: 358 nm

## COc1ccc2nn(-c3cc(C)cc(C(C)(C)C)c3O)nc2c1 [E]
[2]
  Units Absorbance Loss: 1.1872

## CC(C)(C)CC(C)(C)c1cc(Cc2cc(C(C)(C)CC(C)(C)C)cc(-n3nc4ccccc4n3)c2O)c(O)c(-n2nc3ccccc3n2)c1 [Compound B, 2,2′-Methylene-bis[6-(2H-benzotriazol-2-yl)-4-tert-octylphenol]]
[2]
  Units Absorbance Loss: 1.6300

## CC(C)(C)CC(C)(C)c1cc(-n2nc3ccc(F)cc3n2)c(O)c(C(C)(C)c2ccccc2)c1 [W, 5-Fluoro-2-(2-hydroxy-3-α-cumyl-5-tert-octylphenyl)-2H-benzotriazole]
[1]; after 1264 hours of exposure
  Units Absorbance Loss: 0.1655
[1]; after 1518 hours of exposure
  Units Absorbance Loss: 0.1668
[1]
  durability (low loss rate absorbance values after exposure): especially durable

## COC(=O)CCc1cc(-n2nc3ccccc3n2)c(O)c(C(C)(C)c2ccccc2)c1 [M]
[2]
  Units Absorbance Loss: 0.3433

## CC(C)(C)c1cc(-n2nc3ccc(C#N)cc3n2)c(O)c(C(C)(C)C)c1 [N]
[2]
  Units Absorbance Loss: 0.3098

## CC(C)(C)CC(C)(C)c1ccc(O)c(-n2nc3ccccc3n2)c1 [Compound A, 2-(2-hydroxy-5-tert-octylphenyl)-2H-benzotriazole]
[2]
  Units Absorbance Loss: 1.7982

## CC(C)(C)c1cc(-n2nc3ccc(S(=O)(=O)c4ccccc4)cc3n2)c(O)c(C(C)(C)C)c1 [T]
[1]; [8]
  Units Absorbance Loss: 0.1827
[1]; after 1264 hours of exposure
  Units Absorbance Loss: 0.1965
[1]; after 1489 hours of exposure
  Units Absorbance Loss: 0.2654
[1]; after 1518 hours of exposure
  Units Absorbance Loss: 0.2423
[1]; after 2521 hours of exposure
  Units Absorbance Loss: 0.3570
[1]
  durability (low loss rate absorbance values after exposure): significantly more durable

## CC(C)(C)CC(C)(C)c1cc(-n2nc3ccc(C(F)(F)F)cc3n2)c(O)c(C(C)(C)c2ccccc2)c1 [S, 5-trifluoromethyl-2-(2-hydroxy-3-α-cumyl-5-tert-octylphenyl)-2H-benzotriazole]
[5]
  Absorbance @ 375 nm: 0.35
[6]
  DE: 1.28
  b: 1.05
[1]; [8]
  Units Absorbance Loss: 0.1271
[1]; after 1264 hours of exposure
  Units Absorbance Loss: 0.0921
[1]; after 1489 hours of exposure
  Units Absorbance Loss: 0.1547
[1]; after 1518 hours of exposure
  Units Absorbance Loss: 0.1116
[1]; after 2521 hours of exposure
  Units Absorbance Loss: 0.2192
[1]
  durability (low loss rate absorbance values after exposure): significantly more durable; also recorded: especially durable
[7]
  ε @ λ max: 15,000
  λ max nm: 348 nm

## CC(C)(c1ccccc1)c1ccc(O)c(-n2nc3ccccc3n2)c1 [G]
[2]
  Units Absorbance Loss: 0.4527

## CCCCCCCCCS(=O)(=O)c1ccc2nn(-c3cc(C(C)(C)CC(C)(C)C)cc(C(C)(C)c4ccccc4)c3O)nc2c1 [AA, 5-nonylsulfonyl-2-(2-hydroxy-3-α-cumyl-5-tert-octylphenyl)-2H-benzotriazole]
[3]; 2.5 wt %
  Absorbance (max) 1100 hrs: 1.300
  % Loss: 2.5%
  Absorbance (max) Loss units: 0.033
[3]; 2.5 wt %, AA at 364 nm
  Absorbance (max) 0 hrs: 1.333
[4]; 2.5 wt %
  Absorbance (max) 1100 hrs: 1.103
  % Loss: 3.1%
  Absorbance (max) Loss units: 0.036
[4]; 2.5 wt %, AA at 368 nm
  Absorbance (max) 0 hrs: 1.149

## CC(C)(c1ccccc1)c1cc(-c2ccccc2)c(O)c(-n2nc3ccccc3n2)c1 [R]
[1]; [8]
  Units Absorbance Loss: 0.2424
[1]; after 1489 hours of exposure
  Units Absorbance Loss: 0.3724
[1]; after 2521 hours of exposure
  Units Absorbance Loss: 0.4824

## CC(C)CCCCCOC(=O)CCc1cc(-n2nc3ccc(C(F)(F)F)cc3n2)c(O)c(C(C)(C)C)c1 [FF, isooctyl 3-(5-trifluoromethyl-2H-benzotriazol-2-yl)-5-tert-butyl-4-hydroxyhydro-cinnamate]
[6]
  DE: 0.72
  b: 0.54

## CCCCS(=O)(=O)c1ccc2nn(-c3cc(C(C)(C)CC(C)(C)C)cc(C(C)(C)c4ccccc4)c3O)nc2c1 [CC, 5-butylsulfonyl-2-(2-hydroxy-3-α-cumyl-5-tert-octylphenyl)-2H-benzotriazole]
[5]
  Absorbance @ 375 nm: 0.42
[6]
  DE: 3.35
  b: 2.84
[7]
  ε @ λ max: 14,100
  λ max nm: 359 nm

## CC(C)(C)CC(C)(C)c1cc(-n2nc3ccccc3n2)c(O)c(C(C)(C)CC(C)(C)C)c1 [K]
[2]
  Units Absorbance Loss: 0.3777

## CC(C)(C)CC(C)(C)c1cc(C(C)(C)c2ccccc2)cc(-n2nc3ccccc3n2)c1O [I]
[2]
  Units Absorbance Loss: 0.4299
